In US7846959B2, “Raf modulators and methods of use” (Exelixis, Inc., priority 2004, dated 2010) one finds IC50 data, which are given here for 27 molecules.

Like-named read-outs stand apart in the source and are kept apart here.

One experiment addresses c-Raf (Homo sapiens, UniProt P04049). Put plainly: Luciferase-coupled chemiluminescence kinase assay (ATP consumption), c-Raf. It counts as biochemical. The essentials:
(§1)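 Raf enzyme ([…]) pre-incubated with compound 30 minutes at room temperature in 20 mM Tris pH 7.5, 10 mM MgCl2, 0.03% TX-100, 1 mM DTT, then reacted with ATP for 3 hrs at ambient temperature. Remaining ATP quantified by luciferase-luciferin chemiluminescence, consumption held at 25-60%; IC50 reported.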

The target in another experiment is B-Raf (Homo sapiens, UniProt P15056). Put plainly: Luciferase-coupled chemiluminescence kinase assay (ATP consumption), B-Raf. The experiment is classed as biochemical. The essentials: as §1
Chain of B-Raf (P15056 whole entry): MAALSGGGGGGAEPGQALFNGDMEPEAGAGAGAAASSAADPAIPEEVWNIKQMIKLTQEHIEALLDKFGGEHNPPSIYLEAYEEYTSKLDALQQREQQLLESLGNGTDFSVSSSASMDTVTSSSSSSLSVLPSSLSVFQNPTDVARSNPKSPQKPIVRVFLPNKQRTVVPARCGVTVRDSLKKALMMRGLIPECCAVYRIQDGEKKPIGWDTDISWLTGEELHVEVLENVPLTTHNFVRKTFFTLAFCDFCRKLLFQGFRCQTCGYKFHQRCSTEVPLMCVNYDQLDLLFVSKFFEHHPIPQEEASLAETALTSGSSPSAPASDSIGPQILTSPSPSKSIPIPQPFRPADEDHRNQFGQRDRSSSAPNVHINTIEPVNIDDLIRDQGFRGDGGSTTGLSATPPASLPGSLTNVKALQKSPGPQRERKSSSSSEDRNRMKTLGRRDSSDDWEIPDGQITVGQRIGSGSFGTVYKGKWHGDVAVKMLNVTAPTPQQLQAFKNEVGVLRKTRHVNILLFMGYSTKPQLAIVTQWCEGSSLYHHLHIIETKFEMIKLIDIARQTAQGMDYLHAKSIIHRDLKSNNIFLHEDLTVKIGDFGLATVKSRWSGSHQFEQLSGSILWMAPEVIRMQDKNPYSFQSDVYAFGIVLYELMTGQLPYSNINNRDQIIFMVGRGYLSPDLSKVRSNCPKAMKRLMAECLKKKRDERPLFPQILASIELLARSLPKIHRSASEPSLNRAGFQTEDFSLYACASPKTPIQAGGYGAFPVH
[1] abbreviates: read-out: cRaf-1 (inhibition indicated as IC50).
[2] abbreviates: read-out: bRaf (inhibition indicated as IC50).

By IC50 is commonly meant the midpoint of a concentration-inhibition curve.

Chain of c-Raf (P04049 whole entry): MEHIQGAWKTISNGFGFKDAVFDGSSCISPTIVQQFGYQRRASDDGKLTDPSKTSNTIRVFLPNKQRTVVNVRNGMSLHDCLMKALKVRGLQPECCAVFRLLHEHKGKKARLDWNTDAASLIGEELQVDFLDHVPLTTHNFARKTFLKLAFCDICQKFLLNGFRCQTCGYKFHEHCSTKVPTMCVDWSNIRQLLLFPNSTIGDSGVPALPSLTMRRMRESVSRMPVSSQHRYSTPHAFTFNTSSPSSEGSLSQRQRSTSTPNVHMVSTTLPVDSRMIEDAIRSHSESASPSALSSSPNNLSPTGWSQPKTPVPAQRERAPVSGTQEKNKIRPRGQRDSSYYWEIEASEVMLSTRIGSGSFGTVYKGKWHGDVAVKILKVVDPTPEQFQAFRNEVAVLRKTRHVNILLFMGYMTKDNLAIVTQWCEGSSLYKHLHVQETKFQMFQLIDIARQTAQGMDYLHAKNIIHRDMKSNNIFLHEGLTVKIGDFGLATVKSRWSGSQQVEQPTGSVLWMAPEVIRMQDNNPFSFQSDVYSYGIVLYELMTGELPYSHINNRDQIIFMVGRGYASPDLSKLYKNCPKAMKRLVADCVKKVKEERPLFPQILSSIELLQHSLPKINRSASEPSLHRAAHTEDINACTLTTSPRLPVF

As to `COC(=O)Nc1nc2cc(C3(O)c4ccccc4C(=O)N3c3cccc(N)c3)ccc2[nH]1` (stereo not drawn) [Entry 261, methyl {5-[2-(3-aminophenyl)-1-hydroxy-3-oxo-2,3-dihydro-1H-isoindol-1-yl]-1H-benzimidazol-2-yl}carbamate], the concentration for half-maximal inhibition (IC50) at c-Raf (read-out: cRaf-1 IC50) and on B-Raf (read-out: bRaf IC50) was below 100 nM in each case.

As for `O=C(CCCOCc1ccccc1)Nc1nc2cc(C3(O)c4ccccc4C(=O)N3Cc3ccccc3)ccc2[nH]1` (stereo not drawn) [Entry 262, N-{5-[1-hydroxy-3-oxo-2-(phenylmethyl)-2,3-dihydro-1H-isoindol-1-yl]-1H-benzimidazol-2-yl}-4-[(phenylmethyl)oxy]butanamide], the half-maximal inhibitory concentration (IC50) at c-Raf (read-out: cRaf-1 IC50) and at B-Raf (read-out: bRaf IC50) was below 100 nM throughout.

Take `O=C(CCCN1CCCCC1)Nc1nc2cc(C3(O)c4ccccc4C(=O)N3Cc3ccccc3)ccc2[nH]1` (stereo not drawn) [Entry 263, N-{5-[1-hydroxy-3-oxo-2-(phenylmethyl)-2,3-dihydro-1H-isoindol-1-yl]-1H-benzimidazol-2-yl}-4-piperidin-1-ylbutanamide]: the IC50 on c-Raf (read-out: cRaf-1 IC50) and at B-Raf (read-out: bRaf IC50) was below 100 nM each time.

Turning to `CN1CCN(CCCC(=O)Nc2nc3cc(C4(O)c5ccccc5C(=O)N4Cc4ccccc4)ccc3[nH]2)CC1` (stereo not drawn) [Entry 264, N-{5-[1-hydroxy-3-oxo-2-(phenylmethyl)-2,3-dihydro-1H-isoindol-1-yl]-1H-benzimidazol-2-yl}-4-(4-methylpiperazin-1-yl)butanamide], the 50% inhibitory concentration (IC50) at c-Raf (read-out: cRaf-1 IC50) and on B-Raf (read-out: bRaf IC50) was below 100 nM each time.

As to `CCCC(=O)Nc1nc2ccc(C3(O)c4ccccc4C(=O)N3c3ccc(F)cc3)cc2[nH]1` (stereo not drawn) [Entry 265, N-{6-[2-(4-fluorophenyl)-1-hydroxy-3-oxo-2,3-dihydro-1H-isoindol-1-yl]-1H-benzimidazol-2-yl}butanamide], the IC50 on c-Raf (read-out: cRaf-1 IC50) and on B-Raf (read-out: bRaf IC50) was below 100 nM each time.

In the case of `COC(=O)Nc1nc2ccc(C3(O)c4cc(Cl)c(Cl)cc4C(=O)N3c3cccc(Br)c3)cc2[nH]1` (stereo not drawn) [Entry 266, methyl {6-[2-(3-bromophenyl)-5,6-dichloro-1-hydroxy-3-oxo-2,3-dihydro-1H-isoindol-1-yl]-1H-benzimidazol-2-yl}carbamate], the IC50 at c-Raf (read-out: cRaf-1 IC50) and on B-Raf (read-out: bRaf IC50) was 1000 to 10000 nM throughout.

Consider `COC(=O)Nc1nc2cc(C3(O)c4ccccc4C(=O)N3c3cccc(N(C)c4ccccc4)c3)ccc2[nH]1` (stereo not drawn) [Entry 267, methyl [5-(1-hydroxy-2-{3-[methyl(phenyl)amino]phenyl}-3-oxo-2,3-dihydro-1H-isoindol-1-yl)-1H-benzimidazol-2-yl]carbamate], for which the half-maximal inhibitory concentration (IC50) on c-Raf (read-out: cRaf-1 IC50) and at B-Raf (read-out: bRaf IC50) was below 100 nM in each case.

`COC(=O)Nc1nc2cc(C3(O)c4ccccc4C(=O)N3S(=O)(=O)c3ccccc3)ccc2[nH]1` (stereo not drawn) [Entry 268, methyl {5-[1-hydroxy-3-oxo-2-(phenylsulfonyl)-2,3-dihydro-1H-isoindol-1-yl]-1H-benzimidazol-2-yl}carbamate]: the IC50 at c-Raf (setting [1]) and at B-Raf (setting [2]) was 1000 to 10000 nM throughout.

On to `COC(=O)Nc1nc2cc(C(=O)c3ccccc3NC(=O)Nc3ccccc3)ccc2[nH]1` [Entry 269, methyl {5-[(2-{[(phenylamino)carbonyl]amino}phenyl)carbonyl]-1H-benzimidazol-2-yl}carbamate], for which the half-inhibitory concentration (IC50) at c-Raf (setting [1]) and on B-Raf (setting [2]) was 100 to 1000 nM throughout.

As for `COC(=O)Nc1nc2cc(C(=O)c3ccccc3NC(=O)OCc3ccccc3)ccc2[nH]1` [Entry 270, methyl (5-{[2-({[(phenylmethyl)oxy]carbonyl}amino)pheny]carbonyl}-1H-benzimidazol-2-yl)carbamate], the IC50 on c-Raf (setting [1]) and at B-Raf (setting [2]) was 1000 to 10000 nM in each case.

Take `COC(=O)Nc1nc2cc(C(=O)c3ccccc3C(=O)NNc3ccccc3)ccc2[nH]1` [Entry 271, methyl [5-({2-[(2-phenylhydrazino)carbonyl]phenyl}carbonyl)-1H-benzimidazol-2-yl]carbamate]: the IC50 at c-Raf (setting [1]) and at B-Raf (setting [2]) was 100 to 1000 nM in each case.

On to `COC(=O)Nc1nc2cc(C(=O)c3ccccc3C(=O)NOc3ccccc3)ccc2[nH]1` [Entry 272, methyl {5-[(2-{[(phenyloxy)amino]carbonyl}phenyl)carbonyl]-1H-benzimidazol-2-yl}carbamate], for which the IC50 at c-Raf (setting [1]) and at B-Raf (setting [2]) was below 100 nM each time.

Regarding `CC#CCOC(=O)Nc1nc2cc(C3(O)c4ccccc4C(=O)N3c3ccc(F)cc3)ccc2[nH]1` (stereo not drawn) [Entry 273, but-2-yn-1-yl {5-[2-(4-fluorophenyl)-1-hydroxy-3-oxo-2,3-dihydro-1H-isoindol-1-yl]-1H-benzimidazol-2-yl}carbamate], the IC50 on c-Raf (setting [1]) and at B-Raf (setting [2]) was below 100 nM throughout.

In the case of `O=C(CCN1CCCCC1)Nc1nc2cc(C3(O)c4ccccc4C(=O)N3Cc3ccccc3)ccc2[nH]1` (stereo not drawn) [Entry 274, N-{5-[1-hydroxy-3-oxo-2-(phenylmethyl)-2,3-dihydro-1H-isoindol-1-yl]-1H-benzimidazol-2-yl}-3-piperidin-1-ylpropanamide], the IC50 on c-Raf (setting [1]) and at B-Raf (setting [2]) was below 100 nM throughout.

Turning to `CCC(=O)Nc1nc2ccc(C3(O)c4ccccc4C(=O)N3c3ccc(F)cc3)cc2[nH]1` (stereo not drawn) [Entry 275, N-{6-[2-(4-fluorophenyl)-1-hydroxy-3-oxo-2,3-dihydro-1H-isoindol-1-yl]-1H-benzimidazol-2-yl}propanamide], the IC50 at c-Raf (setting [1]) and on B-Raf (setting [2]) was below 100 nM in each case.

`C#CCCC(=O)Nc1nc2ccc(C(=O)c3ccccc3C(=O)Nc3ccc(F)cc3)cc2[nH]1` [Entry 276, N-(4-fluorophenyl)-2-{[2-(pent-4-ynoylamino)-1H-benzimidazol-6-yl]carbonyl}benzamide]: the IC50 at c-Raf (setting [1]) and at B-Raf (setting [2]) was below 100 nM throughout.

As for `CCN(CC)CCCC(=O)Nc1nc2cc(C3(O)c4ccccc4C(=O)N3Cc3ccccc3)ccc2[nH]1` (stereo not drawn) [Entry 277, 4-(diethylamino)-N-{5-[1-hydroxy-3-oxo-2-(phenylmethyl)-2,3-dihydro-1H-isoindol-1-yl]-1H-benzimidazol-2-yl}butanamide], the IC50 at c-Raf (setting [1]) and on B-Raf (setting [2]) was below 100 nM in each case.

`O=C(CCCN1CCCC1)Nc1nc2cc(C3(O)c4ccccc4C(=O)N3Cc3ccccc3)ccc2[nH]1` (stereo not drawn) [Entry 278, N-{5-[1-hydroxy-3-oxo-2-(phenylmethyl)-2,3-dihydro-1H-isoindol-1-yl]-1H-benzimidazol-2-yl}-4-pyrrolidin-1-ylbutanamide]: the IC50 at c-Raf (setting [1]) and at B-Raf (setting [2]) was below 100 nM each time.

For the molecule `O=C(Nc1nc2ccc(C3(O)c4ccccc4C(=O)N3c3ccc(F)cc3)cc2[nH]1)OCCCN1CCCCC1` (stereo not drawn) [Entry 279, 3-piperidin-1-ylpropyl {6-[2-(4-fluorophenyl)-1-hydroxy-3-oxo-2,3-dihydro-1H-isoindol-1-yl]-1H-benzimidazol-2-yl}carbamate], the IC50 on c-Raf (setting [1]) is below 100 nM; at B-Raf (setting [2]) it was 100 to 1000 nM.

On to `CN1CCN(CCCOC(=O)Nc2nc3ccc(C4(O)c5ccccc5C(=O)N4c4ccc(F)cc4)cc3[nH]2)CC1` (stereo not drawn) [Entry 280, 3-(4-methylpiperazin-1-yl)propyl {6-[2-(4-fluorophenyl)-1-hydroxy-3-oxo-2,3-dihydro-1H-isoindol-1-yl]-1H-benzimidazol-2-yl}carbamate], for which the IC50 on c-Raf (setting [1]) and on B-Raf (setting [2]) was below 100 nM throughout.

In the case of `COC(=O)Nc1nc2cc(C3c4ccccc4C(=O)N3c3cccc(Br)c3)ccc2[nH]1` (stereo not drawn) [Entry 281, methyl {5-[2-(3-bromophenyl)-3-oxo-2,3-dihydro-1H-isoindol-1-yl]-1H-benzimidazol-2-yl}carbamate], the concentration for half-maximal inhibition (IC50) on c-Raf (setting [1]) and at B-Raf (setting [2]) was below 100 nM throughout.

With `C#Cc1cccc(N2C(=O)c3ccccc3C2(O)c2ccc3[nH]c(NC(=O)OC)nc3c2)c1F` (stereo not drawn) [Entry 282, methyl {5-[2-(3-ethynyl-2-fluorophenyl)-1-hydroxy-3-oxo-2,3-dihydro-1H-isoindol-1-yl]-1H-benzimidazol-2-yl}carbamate], the IC50 on c-Raf (setting [1]) and at B-Raf (setting [2]) was below 100 nM throughout.

Take `O=C(Nc1nc2cc(C3(O)c4ccccc4C(=O)N3c3ccc(F)cc3)ccc2[nH]1)OCCN1CCCCC1` (stereo not drawn) [Entry 283, 2-piperidin-1-ylethyl {5-[2-(4-fluorophenyl)-1-hydroxy-3-oxo-2,3-dihydro-1H-isoindol-1-yl]-1H-benzimidazol-2-yl}carbamate]: the IC50 at c-Raf (setting [1]) is below 100 nM; at B-Raf (setting [2]), 100 to 1000 nM.

Regarding `COC(=O)Nc1nc2cc(C3(O)c4ccccc4C(=O)N3c3cccc(Cl)c3C)ccc2[nH]1` (stereo not drawn) [Entry 284, methyl {5-[2-(3-chloro-2-methylphenyl)-1-hydroxy-3-oxo-2,3-dihydro-1H-isoindol-1-yl]-1H-benzimidazol-2-yl}carbamate], the IC50 on c-Raf (setting [1]) and at B-Raf (setting [2]) was below 100 nM throughout.

Regarding `COC(=O)Nc1nc2cc(C3(O)c4ccccc4C(=O)N3c3cc(Cl)ccc3C)ccc2[nH]1` (stereo not drawn) [Entry 285, methyl {5-[2-(5-chloro-2-methylphenyl)-1-hydroxy-3-oxo-2,3-dihydro-1H-isoindol-1-yl]-1H-benzimidazol-2-yl}carbamate], the IC50 at c-Raf (setting [1]) and on B-Raf (setting [2]) was below 100 nM throughout.

Regarding `CC(C)(CN1CCCCC1)C(=O)Nc1nc2ccc(C3(O)c4ccccc4C(=O)N3Cc3ccccc3)cc2[nH]1` (stereo not drawn) [Entry 286, N-{6-[1-hydroxy-3-oxo-2-(phenylmethyl)-2,3-dihydro-1H-isoindol-1-yl]-1H-benzimidazol-2-yl}-2,2-dimethyl-3-piperidin-1-ylpropanamide], the IC50 on c-Raf (setting [1]) and at B-Raf (setting [2]) was 1000 to 10000 nM in each case.

On to `O=C(CCCN1CCCCC1)Nc1nc2cc(C3(O)c4ccccc4C(=O)N3c3ccc(F)cc3)ccc2[nH]1` (stereo not drawn) [Entry 287, N-{5-[2-(4-fluorophenyl)-1-hydroxy-3-oxo-2,3-dihydro-1H-isoindol-1-yl]-1H-benzimidazol-2-yl}-4-piperidin-1-ylbutanamide], for which the IC50 at c-Raf (setting [1]) and at B-Raf (setting [2]) was below 100 nM in each case.
